Test results as given in the supplement of paper PMC10307832.

Columns and labels:
Experiment in all cases: relative viability (nuclei count vs DMSO), 5 days (fraction); higher = more cells survive
IU1-47 + Tozasertib = compound: CC1=CC(=C(N1C2=CC=C(C=C2)Cl)C)C(=O)CN3CCCCC3 [IU1-47] + Cc1cc(Nc2cc(N3CCN(C)CC3)nc(Sc3ccc(NC(=O)C4CC4)cc3)n2)n[nH]1 [Tozasertib] (partner 0.1 µM)
Summary of the method: (§1)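 Lung cancer cell lines were pin-tool dosed in 1536-well plates on the day after seeding, with either a lone drug or a fixed anchor-drug dose plus five library-drug doses (not always all listed) in √10 steps. Nuclei were counted on 4× images after 5 days. Relative viability is the ratio of treated-well to vehicle-well nuclei counts, with each value a median of duplicate plates.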

FG-4592 + Linsitinib = compound: Cc1nc(C(=O)NCC(=O)O)c(O)c2ccc(Oc3ccccc3)cc12 [FG-4592] + C[C@]1(O)C[C@@H](c2nc(-c3ccc4ccc(-c5ccccc5)nc4c3)c3c(N)nccn32)C1 [Linsitinib] (partner 1 µM)
Summary of the method: as §1

FG-4592 + Palbociclib = compound: Cc1nc(C(=O)NCC(=O)O)c(O)c2ccc(Oc3ccccc3)cc12 [FG-4592] + CC(=O)c1c(C)c2cnc(Nc3ccc(N4CCNCC4)cn3)nc2n(C2CCCC2)c1=O [Palbociclib] (partner 0.5 µM)
Summary of the method: as §1

FG-4592 + Navitoclax = compound: Cc1nc(C(=O)NCC(=O)O)c(O)c2ccc(Oc3ccccc3)cc12 [FG-4592] + CC1(C)CCC(c2ccc(Cl)cc2)=C(CN2CCN(c3ccc(C(=O)NS(=O)(=O)c4ccc(N[C@H](CCN5CCOCC5)CSc5ccccc5)c(S(=O)(=O)C(F)(F)F)c4)cc3)CC2)C1 [Navitoclax] (partner 0.5 µM)
Summary of the method: as §1

NCI-H322M
relative viability (IU1-47 + Tozasertib; first compound 0.08 µM): 0.496
relative viability (IU1-47 + Tozasertib; first compound 0.253 µM): 0.558
relative viability (IU1-47 + Tozasertib; first compound 0.8 µM): 0.506
relative viability (IU1-47 + Tozasertib; first compound 2.53 µM): 0.54
relative viability (IU1-47 + Tozasertib; first compound 8 µM): 0.477
relative viability (FG-4592 + Linsitinib; first compound 0.08 µM): 0.858
relative viability (FG-4592 + Linsitinib; first compound 0.253 µM): 0.914
relative viability (FG-4592 + Linsitinib; first compound 0.8 µM): 0.807
relative viability (FG-4592 + Linsitinib; first compound 2.53 µM): 0.92
relative viability (FG-4592 + Linsitinib; first compound 8 µM): 0.861
relative viability (FG-4592 + Palbociclib; first compound 0.253 µM): 0.455
relative viability (FG-4592 + Palbociclib; first compound 0.8 µM): 0.444
relative viability (FG-4592 + Palbociclib; first compound 2.53 µM): 0.465
relative viability (FG-4592 + Palbociclib; first compound 8 µM): 0.483
relative viability (FG-4592 + Navitoclax; first compound 0.08 µM): 1.3
relative viability (FG-4592 + Navitoclax; first compound 0.253 µM): 1.21
relative viability (FG-4592 + Navitoclax; first compound 0.8 µM): 1.08
relative viability (FG-4592 + Navitoclax; first compound 2.53 µM): 1
relative viability (FG-4592 + Navitoclax; first compound 8 µM): 1.19

NCI-H3122
relative viability (IU1-47 + Tozasertib; first compound 0.08 µM): 0.442
relative viability (IU1-47 + Tozasertib; first compound 0.253 µM): 0.423
relative viability (IU1-47 + Tozasertib; first compound 0.8 µM): 0.371
relative viability (IU1-47 + Tozasertib; first compound 2.53 µM): 0.46
relative viability (IU1-47 + Tozasertib; first compound 8 µM): 0.331
relative viability (FG-4592 + Linsitinib; first compound 0.08 µM): 0.95
relative viability (FG-4592 + Linsitinib; first compound 0.253 µM): 1.03
relative viability (FG-4592 + Linsitinib; first compound 0.8 µM): 1.07
relative viability (FG-4592 + Linsitinib; first compound 2.53 µM): 1.02
relative viability (FG-4592 + Linsitinib; first compound 8 µM): 0.816
relative viability (FG-4592 + Palbociclib; first compound 0.08 µM): 0.194
relative viability (FG-4592 + Palbociclib; first compound 0.253 µM): 0.203
relative viability (FG-4592 + Palbociclib; first compound 0.8 µM): 0.168
relative viability (FG-4592 + Palbociclib; first compound 2.53 µM): 0.216
relative viability (FG-4592 + Palbociclib; first compound 8 µM): 0.197
relative viability (FG-4592 + Navitoclax; first compound 0.08 µM): 1.03
relative viability (FG-4592 + Navitoclax; first compound 0.253 µM): 0.978
relative viability (FG-4592 + Navitoclax; first compound 0.8 µM): 0.997
relative viability (FG-4592 + Navitoclax; first compound 2.53 µM): 1.03
relative viability (FG-4592 + Navitoclax; first compound 8 µM): 1.05

COR-L23
relative viability (IU1-47 + Tozasertib; first compound 0.08 µM): 0.184
relative viability (IU1-47 + Tozasertib; first compound 0.253 µM): 0.183
relative viability (IU1-47 + Tozasertib; first compound 0.8 µM): 0.206
relative viability (IU1-47 + Tozasertib; first compound 2.53 µM): 0.207
relative viability (IU1-47 + Tozasertib; first compound 8 µM): 0.18
relative viability (FG-4592 + Linsitinib; first compound 0.08 µM): 0.832
relative viability (FG-4592 + Linsitinib; first compound 0.253 µM): 0.746
relative viability (FG-4592 + Linsitinib; first compound 0.8 µM): 0.915
relative viability (FG-4592 + Linsitinib; first compound 2.53 µM): 0.913
relative viability (FG-4592 + Linsitinib; first compound 8 µM): 0.912
relative viability (FG-4592 + Palbociclib; first compound 0.08 µM): 0.274
relative viability (FG-4592 + Palbociclib; first compound 0.253 µM): 0.28
relative viability (FG-4592 + Palbociclib; first compound 0.8 µM): 0.258
relative viability (FG-4592 + Palbociclib; first compound 2.53 µM): 0.274
relative viability (FG-4592 + Palbociclib; first compound 8 µM): 0.234
relative viability (FG-4592 + Navitoclax; first compound 0.08 µM): 0.924
relative viability (FG-4592 + Navitoclax; first compound 0.253 µM): 0.98
relative viability (FG-4592 + Navitoclax; first compound 0.8 µM): 1.14
relative viability (FG-4592 + Navitoclax; first compound 2.53 µM): 0.909
relative viability (FG-4592 + Navitoclax; first compound 8 µM): 0.932

NCI-H650
relative viability (IU1-47 + Tozasertib; first compound 0.08 µM): 0.759
relative viability (IU1-47 + Tozasertib; first compound 0.253 µM): 0.824
relative viability (IU1-47 + Tozasertib; first compound 0.8 µM): 0.751
relative viability (IU1-47 + Tozasertib; first compound 2.53 µM): 0.779
relative viability (IU1-47 + Tozasertib; first compound 8 µM): 0.698
relative viability (FG-4592 + Linsitinib; first compound 0.08 µM): 0.884
relative viability (FG-4592 + Linsitinib; first compound 0.253 µM): 0.704
relative viability (FG-4592 + Linsitinib; first compound 0.8 µM): 0.669
relative viability (FG-4592 + Linsitinib; first compound 2.53 µM): 0.724
relative viability (FG-4592 + Linsitinib; first compound 8 µM): 0.631
relative viability (FG-4592 + Palbociclib; first compound 0.08 µM): 0.338
relative viability (FG-4592 + Palbociclib; first compound 0.253 µM): 0.264
relative viability (FG-4592 + Palbociclib; first compound 0.8 µM): 0.327
relative viability (FG-4592 + Palbociclib; first compound 2.53 µM): 0.321
relative viability (FG-4592 + Palbociclib; first compound 8 µM): 0.263

NCI-H1792
relative viability (FG-4592 + Linsitinib; first compound 0.08 µM): 0.522
relative viability (FG-4592 + Linsitinib; first compound 0.253 µM): 0.411
relative viability (FG-4592 + Linsitinib; first compound 0.8 µM): 0.487
relative viability (FG-4592 + Linsitinib; first compound 2.53 µM): 0.577
relative viability (FG-4592 + Linsitinib; first compound 8 µM): 0.567
relative viability (FG-4592 + Palbociclib; first compound 0.08 µM): 0.493
relative viability (FG-4592 + Palbociclib; first compound 0.253 µM): 0.614
relative viability (FG-4592 + Palbociclib; first compound 0.8 µM): 0.689
relative viability (FG-4592 + Palbociclib; first compound 2.53 µM): 0.661
relative viability (FG-4592 + Palbociclib; first compound 8 µM): 0.684
relative viability (FG-4592 + Navitoclax; first compound 0.08 µM): 0.619
relative viability (FG-4592 + Navitoclax; first compound 0.253 µM): 0.554
relative viability (FG-4592 + Navitoclax; first compound 0.8 µM): 0.575
relative viability (FG-4592 + Navitoclax; first compound 2.53 µM): 0.611
relative viability (FG-4592 + Navitoclax; first compound 8 µM): 0.644
